Values of other authors, collected in US20150209310A1, “NACA FOR THE TREATMENT OF CHRONIC OR LOW IMPACT BRAIN TRAUMA” (Brighton Biotech, Inc., priority 2014, published 2015).

Details: background statement

CC(=O)N[C@@H](CS)C(=O)O [NAC, N-acetyl-L-cysteine]
crossing of the blood-brain barrier: inability to cross the blood-brain barrier
